The results in this text go back to the supplement of paper PMC10883282.

The structures appear in SMILES notation. ± gives the standard deviation of the averaged measurements.

For the test, the system named is KHOS-NP. Put plainly: relative viability vs DMSO control (72 h) (fraction); higher = more viable cells. The procedure, abridged: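 Sarcoma cell lines were plated in 384 wells to reach 80–90% confluence, treated after 24 h with 2.5 µl of serially diluted compound and held 72 h at 37 °C, 5% CO2. Relative viability was taken as percent growth from ATPLite readings, averaged over up to triplicate wells. The values were rescaled so that 1 marks full and 0 marks none.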

As for `Cc1cc(C)c(/C=C2\C(=O)Nc3ccccc32)[nH]1` [Semaxanib], the relative viability was determined as 1.04 ± 0.035 (0.00017 µM); 1.04 ± 0.025 (0.00051 µM); 1.05 ± 0.028 (0.00152 µM); 1.05 ± 0.037 (0.00457 µM); 1.03 ± 0.041 (0.01372 µM); 1.05 ± 0.02 (0.04115 µM). Also, the relative viability reads like this: (0.1235 µM) 1.04 ± 0.03; (0.3704 µM) 1 ± 0.027; (1.111 µM) 0.989 ± 0.027; (3.333 µM) 1.002 ± 0.008; (10 µM) 0.927 ± 0.025.

As for `CC1(C)CNc2cc(NC(=O)c3cccnc3NCc3ccncc3)ccc21` [Motesanib], the relative viability runs as follows: (0.00017 µM) 1.03 ± 0.03; (0.00051 µM) 1.04 ± 0.021; (0.00152 µM) 1.03 ± 0.021; (0.00457 µM) 1.01 ± 0.028; (0.01372 µM) 1.02 ± 0.037; (0.04115 µM) 1.02 ± 0.023. Moreover, the relative viability is 1.03 ± 0.013 (0.1235 µM); 1.03 ± 0.021 (0.3704 µM); 1 ± 0.021 (1.111 µM); 0.973 ± 0.024 (3.333 µM); 0.882 ± 0.048 (10 µM).

In turn, `CNC(=O)c1ccc(-c2cnc3ncc(Cc4ccc5ncccc5c4)n3n2)cc1F` [Capmatinib] returned a relative viability (0.00017 µM) of 1.1 ± 0.021; a relative viability (0.00051 µM) of 1.08 ± 0.016; a relative viability (0.00152 µM) of 1.098 ± 0.0065; a relative viability (0.00457 µM) of 1.06 ± 0.023; a relative viability (0.01372 µM) of 1.094 ± 0.0089; a relative viability (0.04115 µM) of 1.1 ± 0.032. The relative viability reads like this: (0.1235 µM) 1.09 ± 0.021; (0.3704 µM) 1.07 ± 0.035; (1.111 µM) 1.09 ± 0.023; (3.333 µM) 1.09 ± 0.021; (10 µM) 1.09 ± 0.026.

`CC(C)N1CCN(Cc2cnc(-c3cc(-c4cccc5[nH]ccc45)cc4[nH]ncc34)o2)CC1` [Nemiralisib]: the relative viability runs as follows: (0.00017 µM) 1.01 ± 0.024; (0.00051 µM) 1.02 ± 0.024; (0.00152 µM) 1.02 ± 0.029; (0.00457 µM) 1.01 ± 0.03; (0.01372 µM) 1.01 ± 0.026; (0.04115 µM) 1.02 ± 0.013. Besides, the relative viability amounted to 1.02 ± 0.021 (0.1235 µM); 1.03 ± 0.018 (0.3704 µM); 1.04 ± 0.038 (1.111 µM); 1.03 ± 0.038 (3.333 µM); 1.01 ± 0.034 (10 µM).

For `CO[C@H]1C[C@@H]2CC[C@@H](C)[C@@](O)(O2)C(=O)C(=O)N2CCCC[C@H]2C(=O)O[C@H]([C@H](C)C[C@@H]2CC[C@@H](OP(C)(C)=O)[C@H](OC)C2)CC(=O)[C@H](C)/C=C(\C)[C@@H](O)[C@@H](OC)C(=O)[C@H](C)C[C@H](C)/C=C/C=C/C=C/1C` [Ridaforolimus], the relative viability is 1.11 ± 0.033 (0.00017 µM); 1.1 ± 0.011 (0.00051 µM); 1.09 ± 0.015 (0.00152 µM); 1.1 ± 0.016 (0.00457 µM); 1.08 ± 0.03 (0.01372 µM); 1.08 ± 0.033 (0.04115 µM). Further, the relative viability reads like this: (0.1235 µM) 1.07 ± 0.033; (0.3704 µM) 1.06 ± 0.045; (1.111 µM) 1.07 ± 0.026; (3.333 µM) 1.02 ± 0.032; (10 µM) 1.01 ± 0.02.

For `Nc1cc(C(F)(F)F)c(-c2cc(N3CCOCC3)nc(N3CCOCC3)n2)cn1` [Buparlisib], the relative viability is 1.067 ± 0.01 (0.00017 µM); 1.03 ± 0.024 (0.00051 µM); 1.07 ± 0.038 (0.00152 µM); 1.06 ± 0.012 (0.00457 µM); 1.07 ± 0.033 (0.01372 µM); 1.05 ± 0.013 (0.04115 µM). For the same compound, the relative viability reads like this: (0.1235 µM) 1.07 ± 0.022; (0.3704 µM) 1.07 ± 0.048; (1.111 µM) 0.944 ± 0.053; (3.333 µM) 0.426 ± 0.026; (10 µM) 0.266 ± 0.013.

Take `Cc1ccc(F)c(NC(=O)Nc2ccc(-c3cccc4[nH]nc(N)c34)cc2)c1` [Linifanib]: the relative viability by setting is: (0.00017 µM) 1.1 ± 0.012; (0.00051 µM) 1.1 ± 0.016; (0.00152 µM) 1.09 ± 0.027; (0.00457 µM) 1.09 ± 0.024; (0.01372 µM) 1.05 ± 0.016; (0.04115 µM) 1.07 ± 0.015. For the same compound, the relative viability (0.1235 µM) amounted to 1.052 ± 0.0063; the relative viability (0.3704 µM) turned out to be 1.05 ± 0.039; the relative viability (1.111 µM) worked out at 1.03 ± 0.037; the relative viability (3.333 µM) came out at 0.968 ± 0.019; the relative viability (10 µM) came to 1.01 ± 0.059.

For `N#CC[C@H](C1CCCC1)n1cc(-c2ncnc3[nH]ccc23)cn1` [Ruxolitinib], the relative viability reads like this: (0.00017 µM) 1.04 ± 0.024; (0.00051 µM) 1.04 ± 0.028; (0.00152 µM) 1.05 ± 0.03; (0.00457 µM) 1.03 ± 0.036; (0.01372 µM) 1.02 ± 0.033; (0.04115 µM) 1.03 ± 0.038. For the same compound, the relative viability was found to be 1.015 ± 0.0094 (0.1235 µM); 0.995 ± 0.062 (0.3704 µM); 0.988 ± 0.044 (1.111 µM); 0.9816 ± 0.0032 (3.333 µM); 0.809 ± 0.031 (10 µM).

On to `C=CC(=O)Nc1cccc(Oc2nc(Nc3ccc(N4CCN(C)CC4)cc3)nc3ccsc23)c1` [Olmutinib], for which the relative viability by setting is: (0.00017 µM) 1.058 ± 0.01; (0.00051 µM) 1.06 ± 0.011; (0.00152 µM) 1.068 ± 0.0024; (0.00457 µM) 1.067 ± 0.0084; (0.01372 µM) 1.07 ± 0.019; (0.04115 µM) 1.08 ± 0.026. This compound also returned a relative viability (0.1235 µM) of 1.054 ± 0.0094; a relative viability (0.3704 µM) of 1.074 ± 0.0078; a relative viability (1.111 µM) of 1.06 ± 0.017; a relative viability (3.333 µM) of 1.04 ± 0.029; a relative viability (10 µM) of 0.926 ± 0.081.
